# Results reported in patent US20220315895A1, “METHODS OF MAKING OLIGOPOTENT AND UNIPOTENT PRECURSORS” (Transfusion Health, LLC, priority 2019, published 2022).
# Tests used:
# [1] = tested on: CD34+ cells isolated from donor peripheral blood; assay: Enhancement of HSCs derived from non-mobilized peripheral blood with compounds of Formula I (Example 33); type: cell-based; settings: normalized fold change days 2 to 7
# Experimental: CD34+ cells were isolated from donor peripheral blood. Standard buffy coat separation using ficoll paque was performed. Cells were pelleted and incubated with unlabeled CD64 antibody. Cells then underwent negative depletion using biotinylated CD2, CD3, CD4, CD5, CD8, CD11b, CD14, CD16, CD19, CD20, CD45RA, CD56, CD235 (in some examples CD15, CD25 and other lineage specific antibodies may also be used). Cells which bind these antibodies are depleted using streptavidin beads. The enriched progenitor pool then undergoes cell sorting for CD34+.
# Isolated CD34+ cells were incubated in an in vitro culture media of Alpha MEM without phenol red with 10% (v/v) heat inactivated fetal bovine serum (FBS). When testing compounds of Formula I, two internal controls were used: a positive control (+SF conditions) and a baseline control (i.e. basic conditions (“cytokines only”)). The media components and concentrations used for the compounds tested are described in [0563] Table 2. The culture also included an antibiotic solution that includes penicillin, streptomycin, and amphotericin B to avoid contamination. Controls were included because the amount of expansion in samples obtained varies from individual to individual.
# (§1) Cultures were incubated at […] (controlled by nitrogen) and 5% CO2.
# (§2) Small molecule components were added separately and fresh each time the media needs to be refreshed. Cytokines can be stored together. Media renewal should occur at least every few days.
# (§3) On the days indicated one-half of the volume of the cell culture was removed for data analysis (flow cytometry using a BD FACS ARIA II). The culture volume was replenished with fresh media according to the conditions tested. The data reported accounts for the dilution factor introduced in this procedure.
# Separate experiments were performed for each compound tested (Compound 1.001-1.023).
# (§4) Table 3, below, summarizes the relative expansive effect of Compound 1.001 to 1.023 (sample compounds) at the indicated concentration. The data in Table 3 is reported as the relative expansive effect. The relative expansive effect is a normalized value of the fold changes shown in each of FIG. 1-FIG. 23. It is calculated as shown below: […]
# [2] = tested on: CD34+ cells from cord blood; assay: Expansion of cord blood CD34+ cells, seven-day culture (Example 35); type: cell-based, human; settings: normalized fold change days 1 to 7
# Experimental: CD34+ cells from cord blood were purchased from STEMCELL Technologies. Primary human CD34+ cells were isolated from cord blood samples using positive immunomagnetic separation techniques. Cells were thawed and gradually brought to room temperature. Samples were washed, then placed in overnight culture in StemSpan with 100 ng/ml each of FLT3L, TPO, SCF, and TL-6. Eighteen to twenty-four hours later (day 1), cells were counted and immunophenotyped (flow cytometry on an Invitrogen Attune N×T cytometer).
# Approximately 1000 live cells were plated into each well of 96-well plates; exact cell numbers dispensed per well were quantified with flow cytometry for later calculations.
# Media for testing compounds of Formula I was prepared using Alpha MEM without phenol red, 10% (v/v) heat inactivated fetal bovine serum. Culture conditions also included an antibiotic solution that includes penicillin, streptomycin, and amphotericin B to avoid contamination. Additional media components and concentrations used for the compounds tested are described in Table 5.
# All incubations for this experiment took place at 3% oxygen (controlled by nitrogen) and 5% CO2. Following seven days of culture, cells from wells were collected and phenotypes were analyzed (flow cytometry on an Invitrogen Attune N×T cytometer).
# as §4, with “6” for “3,”, “the screened compounds” for “Compound 1.001 to 1.023 (sample compounds)”, “6” for “3”, “the figures.” for “FIG. 1-FIG. 23.”
# [3] = tested on: hematopoietic stem cells derived from cord blood; assay: Enhancement of HSCs derived from cord blood with Compound 1.008 (Example 34); type: cell-based
# Experimental: A frozen cord blood sample was thawed and gradually brought to room temperature. Thawed cord blood was incubated in an in vitro culture media of Alpha MEM without phenol red, 10% (v/v) heat inactivated fetal bovine serum (FBS). Four samples were tested: Base conditions, +SF Conditions, +1.008 Conditions, and +1.008/+ER conditions. The components included in each condition is described in [0574] Table 4. Each condition tested also included an antibiotic solution that includes penicillin, streptomycin, and amphotericin B to avoid contamination.
# as §1, §2
# as §3, with “varying amounts” for “one-half of the volume”, “II) and to avoid overcrowding of cells.” for “II).”
# [4] = +1.008 conditions (Compound 1.008 250 nM), 19 days in culture
compound,measurement,setting,value
"CC(C)(C)C(=O)Nc1ccc2c(c1)C(=O)c1cc(O)ccc1-2 [Compound 1.007, N-(7-hydroxy-9-oxo-9H-fluoren-2-yl)pivalamide]",CD90 effect (relative expansive effect on CD34+/CD133+/CD90+ cells),[1]; sample compound 4 μM,++++ (0.9 ≤ x < 1.25)
same,CD133 effect (relative expansive effect on CD34+/CD133+ cells),[1]; sample compound 4 μM,+++ (0.55 ≤ x < 0.9)
same,CD90 effect (relative expansive effect on CD34+/CD133+/CD90+ cells),[2]; sample compound 2 μM,++++ (2.16 ≤ x < 2.52)
same,CD133 effect (relative expansive effect on CD34+/CD133+ cells),[2]; sample compound 2 μM,++++ (2.16 ≤ x < 2.52)
"CCOC1c2ccccc2-c2ccc(NC(C)=O)cc21 (stereo not shown) [Compound 1.021, N-(9-ethoxy-9H-fluoren-2-yl)acetamide]",CD90 effect (relative expansive effect on CD34+/CD133+/CD90+ cells),[1]; sample compound 8 μM,++ (0.2 ≤ x < 0.55)
same,CD133 effect (relative expansive effect on CD34+/CD133+ cells),[1]; sample compound 8 μM,++ (0.2 ≤ x < 0.55)
same,CD90 effect (relative expansive effect on CD34+/CD133+/CD90+ cells),[2]; sample compound 8 μM,+ (x < 1.44)
same,CD133 effect (relative expansive effect on CD34+/CD133+ cells),[2]; sample compound 8 μM,+ (x < 1.44)
ER50891 [reference compound],fold increase levels of HSC populations on addition of ER50891,"[3]; ER50891 100 nM added to Compound 1.008 250 nM (+1.008/+ER conditions), compared with +1.008 alone",even further improved
"CC(C)(C)C(=O)Nc1ccc2c(c1)C(N)c1ccccc1-2 (stereo not shown) [Compound 1.015, N-(9-amino-9H-fluoren-2-yl)pivalamide]",CD90 effect (relative expansive effect on CD34+/CD133+/CD90+ cells),[1]; sample compound 2 μM,++++ (0.9 ≤ x < 1.25)
same,CD133 effect (relative expansive effect on CD34+/CD133+ cells),[1]; sample compound 2 μM,+++ (0.55 ≤ x < 0.9)
same,CD90 effect (relative expansive effect on CD34+/CD133+/CD90+ cells),[2]; sample compound 0.5 μM,++ (1.44 ≤ x < 1.8)
same,CD133 effect (relative expansive effect on CD34+/CD133+ cells),[2]; sample compound 0.5 μM,++ (1.44 ≤ x < 1.8)
"CC(=O)Nc1ccc2c(c1)C(=O)c1ccccc1-2 [Compound 1.009, N-(9-oxo-9H-fluoren-2-yl)acetamide]",CD90 effect (relative expansive effect on CD34+/CD133+/CD90+ cells),[1]; sample compound 2 μM,+++++ (1.25 ≤ x)
same,CD133 effect (relative expansive effect on CD34+/CD133+ cells),[1]; sample compound 2 μM,+++++ (1.25 ≤ x)
same,CD90 effect (relative expansive effect on CD34+/CD133+/CD90+ cells),[2]; sample compound 0.5 μM,+++ (1.8 ≤ x < 2.16)
same,CD133 effect (relative expansive effect on CD34+/CD133+ cells),[2]; sample compound 0.5 μM,+++ (1.8 ≤ x < 2.16)
CC(C)(C)C(=O)Nc1ccc2c(c1)C(=O)c1c(O)cccc1-2 [Compound 1.006],CD90 effect (relative expansive effect on CD34+/CD133+/CD90+ cells),[1]; sample compound 1 μM,++++ (0.9 ≤ x < 1.25)
same,CD133 effect (relative expansive effect on CD34+/CD133+ cells),[1]; sample compound 1 μM,+++ (0.55 ≤ x < 0.9)
same,CD90 effect (relative expansive effect on CD34+/CD133+/CD90+ cells),[2]; sample compound 2 μM,++ (1.44 ≤ x < 1.8)
same,CD133 effect (relative expansive effect on CD34+/CD133+ cells),[2]; sample compound 2 μM,++ (1.44 ≤ x < 1.8)
"CC(=O)Nc1ccc2c(c1)C(OC(C)=O)c1ccccc1-2 (stereo not shown) [Compound 1.022, 2-acetamido-9H-fluoren-9-yl acetate]",CD90 effect (relative expansive effect on CD34+/CD133+/CD90+ cells),[1]; sample compound 32 μM,+++++ (1.25 ≤ x)
same,CD133 effect (relative expansive effect on CD34+/CD133+ cells),[1]; sample compound 32 μM,+++ (0.55 ≤ x < 0.9)
same,CD90 effect (relative expansive effect on CD34+/CD133+/CD90+ cells),[2]; sample compound 8 μM,++ (1.44 ≤ x < 1.8)
same,CD133 effect (relative expansive effect on CD34+/CD133+ cells),[2]; sample compound 8 μM,+++ (1.8 ≤ x < 2.16)
"CC(C)(C)C(=O)Nc1cc2c(cc1O)-c1ccccc1C2=O [Compound 1.014, N-(3-hydroxy-9-oxo-9H-fluoren-2-yl)pivalamide]",CD90 effect (relative expansive effect on CD34+/CD133+/CD90+ cells),[1]; sample compound 8 μM,+++ (0.55 ≤ x < 0.9)
same,CD133 effect (relative expansive effect on CD34+/CD133+ cells),[1]; sample compound 8 μM,++ (0.2 ≤ x < 0.55)
same,CD90 effect (relative expansive effect on CD34+/CD133+/CD90+ cells),[2]; sample compound 8 μM,++ (1.44 ≤ x < 1.8)
same,CD133 effect (relative expansive effect on CD34+/CD133+ cells),[2]; sample compound 8 μM,++ (1.44 ≤ x < 1.8)
"CC(C)(C)C(=O)Nc1ccc2c(c1)C(=O)c1cc(N)ccc1-2 [Compound 1.008, N-(7-amino-9-oxo-9H-fluoren-2-yl)pivalamide]",CD90 effect (relative expansive effect on CD34+/CD133+/CD90+ cells),[1]; sample compound 4 μM,+++++ (1.25 ≤ x)
same,CD133 effect (relative expansive effect on CD34+/CD133+ cells),[1]; sample compound 4 μM,+++ (0.55 ≤ x < 0.9)
same,fold increase in CD34+/CD133+ cells from day 2,[3]; [4],greater than 50 fold
same,fold increase in CD34+/CD133+/CD90+ cells from day 2,[3]; [4],~20 fold
same,fold increase in CD34+/CD133+/CD90+/CD38low/− cells from day 2,[3]; [4],> 12 fold
same,fold increase in CD34+ cells from day 2,"[3]; +1.008 conditions (Compound 1.008 250 nM, TPO, SCF, FLT3L), 19 days in culture",greater than 50 fold
same,CD90 effect (relative expansive effect on CD34+/CD133+/CD90+ cells),[2]; sample compound 8 μM,++++ (2.16 ≤ x < 2.52)
same,CD133 effect (relative expansive effect on CD34+/CD133+ cells),[2]; sample compound 8 μM,++++ (2.16 ≤ x < 2.52)
